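Growth conditions: 96-well plates. Treatment: test compound, 48 hours, 5 concentrations. Analysis: linear interpolation between bracketing concentrations; unreached endpoints set to highest concentration. GI50 = concentration required for 50% inhibition of growth.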 The source made the active and inactive calls. Rule as the data show it: active = GI50 up to about 1.1 µM and inactive = higher.
Assays:
Experiment in all cases: NCI tumour cell line growth inhibition, 48 h
[1] = tested on: RPMI-8226
[2] = tested on: HOP-92
[3] = tested on: LOX IMVI
[4] = tested on: HCC 2998
[5] = tested on: A498
[6] = tested on: RXF 393
[7] = tested on: A549
[8] = tested on: M14
[9] = tested on: SK-MEL-28
[10] = tested on: EKVX
[11] = tested on: SN12C
[12] = tested on: SF-295
[13] = tested on: SNB-75
[14] = tested on: SK-OV-3
[15] = tested on: CCRF-CEM
[16] = tested on: NCI-H522
[17] = tested on: DU-145
[18] = tested on: MDA-N
[19] = tested on: MDA-MB-435

Measured: GI50

CCC1CN2CCc3cc(OC)c(OC)cc3C2CC1CC1c2cc(OC)c(OC)cc2CCN1C(=O)C1CCCN1C(=O)OCc1ccccc1 (stereo not given)
inactive: [1] 15 µM | [2] 10.2 µM | [3] 15 µM | [4] 16.3 µM | [5] 16.3 µM | [6] 10.4 µM | [7] 18.9 µM | [8] 17.1 µM | [9] 16.9 µM | [10] 22.7 µM | [11] 16.3 µM | [12] 16.5 µM | [13] 14.4 µM

CCOc1ccccc1NC(=O)C(=O)CC(=O)c1sc(Nc2nnc(-c3ccc(Cl)c(Cl)c3)o2)nc1C
inactive: [14] > 100 µM | [1] 64.3 µM | [2] > 100 µM | [3] 31.8 µM | [4] > 100 µM | [5] > 100 µM | [6] > 100 µM | [7] > 100 µM | [8] > 100 µM | [15] 40.8 µM | [9] > 100 µM | [10] > 100 µM | [11] > 100 µM | [12] > 100 µM | [13] > 100 µM

O=C1c2ccccc2C2(O)c3cc4ccccc4cc3OC12O (stereo not given)
inactive: [14] > 100 µM | [1] 34 µM | [2] 27.6 µM | [3] 68.5 µM | [4] 54 µM | [5] > 100 µM | [6] 29.2 µM | [7] 44.4 µM | [8] 56.9 µM | [15] 47.2 µM | [16] 40.9 µM | [9] 59.3 µM | [10] 41.7 µM | [11] 92.5 µM | [12] 34.2 µM | [13] 49.3 µM

CC(=O)NN1C(=O)C(Cc2ccccc2)c2ccccc21 (stereo not given)
inactive: [14] > 100 µM | [1] > 100 µM | [2] > 100 µM | [3] > 100 µM | [4] > 100 µM | [5] > 100 µM | [7] > 100 µM | [8] > 100 µM | [15] > 100 µM | [9] > 100 µM | [10] > 100 µM | [11] > 100 µM | [12] > 100 µM | [13] > 100 µM

N/C(=N\O)N/N=C\c1c2ccccc2c(Cl)c2ccccc12
inactive: [14] 2.57 µM | [1] 3.3 µM | [2] 3.16 µM | [3] 2.55 µM | [4] 3.66 µM | [5] 13.5 µM | [6] 1.22 µM | [7] 2.99 µM | [8] 12.1 µM | [15] 5.77 µM | [16] 3.8 µM | [9] 13.5 µM | [10] 3.03 µM | [11] 6.79 µM | [12] 2.75 µM | [13] 12.7 µM

COC1(OC)CC2C(=O)N(Cc3ccccc3)C1C=C2S(=O)(=O)c1ccccc1 (stereo not given)
inactive: [14] 47.5 µM | [1] 21 µM | [2] 24.1 µM | [3] 13.4 µM | [4] 19.5 µM | [5] 20 µM | [6] 12.7 µM | [7] 21.9 µM | [8] 16.1 µM | [15] 14.9 µM | [16] 13.9 µM | [9] 17.5 µM | [10] 15.6 µM | [11] 16.4 µM | [12] 28.5 µM | [13] 28.8 µM

COS(=O)c1cc(Cl)cc(Cl)c1OC(=O)CSSCC(=O)Oc1c(Cl)cc(Cl)cc1S(=O)OC (stereo not given)
inactive: [14] 51.3 µM | [1] 12.5 µM | [2] 22.4 µM | [3] 16 µM | [4] 21.6 µM | [5] 15.5 µM | [6] 15.3 µM | [7] 13.2 µM | [8] 18.8 µM | [15] 19.6 µM | [16] 14.2 µM | [9] 12.4 µM | [10] 20 µM | [11] 10.2 µM | [12] 19.5 µM | [13] 24.7 µM

CC(=O)Nc1ccccc1-c1nc2ccccc2nc1-c1ccccc1
inactive: [14] > 100 µM | [1] > 100 µM | [2] > 100 µM | [4] > 100 µM | [5] > 100 µM | [6] > 100 µM | [7] > 100 µM | [8] > 100 µM | [15] > 100 µM | [9] > 100 µM | [10] > 100 µM | [11] > 100 µM | [12] > 100 µM | [13] 69.7 µM

COc1ccc(NC(=O)/C(O)=C/C(=O)c2ccccc2)cc1
inactive: [17] > 10 µM | [14] > 10 µM | [1] > 10 µM | [18] > 10 µM | [2] > 10 µM | [3] 1.96 µM | [4] > 10 µM | [6] > 10 µM | [7] > 10 µM | [8] > 10 µM | [19] > 10 µM | [15] 2.53 µM | [9] > 10 µM | [10] > 10 µM | [11] > 10 µM | [12] > 10 µM | [13] > 10 µM

N#C/C(=C\c1ccccc1F)C(=O)c1ccccc1
inactive: [14] > 100 µM | [1] > 100 µM | [2] > 100 µM | [3] > 100 µM | [4] > 100 µM | [5] > 100 µM | [7] > 100 µM | [8] > 100 µM | [15] > 100 µM | [16] > 100 µM | [9] > 100 µM | [10] > 100 µM | [11] > 100 µM | [12] > 100 µM

CC(C)(C)c1ccc2c(c1)S(=O)(=O)Nc1ccccc1NS(=O)(=O)c1cc(C(C)(C)C)ccc1OCCOCCOCCO2
inactive: [14] 81.1 µM | [2] 85.3 µM | [3] > 100 µM | [4] > 100 µM | [5] 52.5 µM | [6] 45.5 µM | [7] > 100 µM | [8] > 100 µM | [15] > 100 µM | [9] > 100 µM | [10] 71.8 µM | [11] > 100 µM | [12] 71 µM | [13] 39.2 µM

CCSC(SCC)c1cc2c(cc1Br)OCO2
inactive: [14] 25.2 µM | [1] 19.4 µM | [2] 17.8 µM | [3] 16.2 µM | [4] 17.8 µM | [5] 25.8 µM | [6] 26.7 µM | [7] 28.6 µM | [8] 16.9 µM | [15] 16.6 µM | [16] 24 µM | [9] 33.2 µM | [10] 31.8 µM | [11] 30.5 µM | [12] 24.5 µM | [13] 18.8 µM

CC(=O)OCC1OC(n2c(-c3ccc(N)cc3)cc(-c3ccco3)c(C#N)c2=O)C(OC(C)=O)C(OC(C)=O)C1OC(C)=O (stereo not given)
inactive: [14] > 50 µM | [2] 4.08 µM | [3] 8.04 µM | [4] > 50 µM | [5] > 50 µM | [6] > 50 µM | [7] 15.6 µM | [8] > 50 µM | [16] 8.17 µM | [9] > 50 µM | [10] > 50 µM | [11] > 50 µM | [12] 28 µM | [13] > 50 µM

From ChEMBL document CHEMBL1201862, “PubChem BioAssay data set” (2004)
